# Laboratory results reported in patent US9970057B2, “Human invasion signature for prognosis of metastatic risk” (ALBERT EINSTEIN COLLEGE OF MEDICINE, INC., priority 2011, dated 2018).
# Entries after “also recorded” stand apart in the source; their conditions may differ.
# Tests used:
# [1] = test system: MDA-MB-231 tumors and patient-derived HT17 and HT39 breast tumors; test: in vivo invasion assay in tumor-bearing mice; design: species or system SCID mice; conditions: injected intraperitoneally four hours prior to the experiments; EGF or FBS gradient; MDA-MB-231, HT17 and HT39 tumors; vs vehicle or control IgG
# Procedure: (§1) SB431542 was used, a small molecule specific inhibitor of the TGFβ receptor (14,38), which was injected into the tumor-bearing mice prior to measurements of invasion and intravasation. Invasion was measured by count of the total cells that chemotax and invade in the primary tumor towards a gradient source (EGF or FBS) with the in vivo invasion assay. Intravasation and dissemination was measured by count of the circulating tumor cells in the total blood of tumorbearing mice.
# (§2) The inhibitors SB431542 (a small molecule specific inhibitor of the TGFβ receptor), NSC87877 (a small molecule specific inhibitor of PTPN11) were used, and a neutralizing antibody specific to human IL8 for the experiments. Because the focus of the study is migration and invasion, a drug treatment of only 4 hours was given to the mice before experimental assays so that an acute effect on migration can be measured without long-term effects on tumor growth. Invasion was measured by count of the total cells that chemotax and invade in the primary tumor towards a gradient source (EGF or FBS) with the in viva invasion assay. Intravasation and hematogenous dissemination was measured by count of the circulating tumor cells (CTCs) in the blood of tumor-bearing mice. […] No significant difference in overall cell death was observed by histology in the treated tumors with the four-hour acute treatments. […] As a negative control, an inhibitor to a gene was used that was not identified by the HIS, namely, MYC, a known oncogene recently identified as a master regulator of expression in “poor-outcome” cancer signatures. […] Most of the published signatures to date are isolated from whole patient samples, and therefore represent “whole-picture” information about the metastatic process, a summary of invasion, dissemination, and growth/proliferation. […]
# (§3) Animal Models. […] The mice were monitored for growth for up to 9 months, at which time if a tumor was not visible they were euthanized. For the tumors that grew, in vivo invasion was measured, and then the tumor was used to passage to new mice (surgical procedure same as before). […]
# [2] = test system: MDA-MB-231 tumors and patient-derived HT17 and HT39 breast tumors; test: intravasation assay (circulating tumor cells in blood); type: in vivo, SCID mice; conditions: injected intraperitoneally four hours prior to the experiments; MDA-MB-231, HT17 and HT39 tumors; vs vehicle or control IgG
# Procedure: as §1, §2, §3
# [3] = test system: MDA-MB-231 xenograft; test: BrdU incorporation (proliferation marker) in tumors; type: in vivo; conditions: MDA-MB-231 xenograft mice, acute treatment
# From the text: FIG. 13A-13C. […] (15A). Schematic of experimental design for the inhibitor treatments. (15B). Representative images of immunostained tumors sections with BrdU antibody (black) and counterstained for nuclei (gray). (15C). Quantification of the above experiments is shown for 3 mice per group, and 10 random 40× images per mouse/tumor (excluding necrotic areas). Bars represent the average percentage of BrdU positive nuclei (black) over total (gray). Error bars: SEM. p-values by Student's t-test.
# The inhibitors SB431542 (a small molecule specific inhibitor of the TGFβ receptor), NSC87877 (a small molecule specific inhibitor of PTPN11) were used, and a neutralizing antibody specific to human IL8 for the experiments. Because the focus of the study is migration and invasion, a drug treatment of only 4 hours was given to the mice before experimental assays so that an acute effect on migration can be measured without long-term effects on tumor growth. Invasion was measured by count of the total cells that chemotax and invade in the primary tumor towards a gradient source (EGF or FBS) with the in viva invasion assay. Intravasation and hematogenous dissemination was measured by count of the circulating tumor cells (CTCs) in the blood of tumor-bearing mice. […] No significant difference in overall cell death was observed by histology in the treated tumors with the four-hour acute treatments. […]
Compound,"in vivo invasion (total cells that chemotax and invade in the primary tumor towards a gradient source, cells per microneedle) [1]",intravasation / tumor cell dissemination (circulating tumor cells in blood) [2],BrdU incorporation (percentage of BrdU positive nuclei; proliferation in vivo) [3]
CCc1ccc(/C=C2/SC(=S)NC2=O)cc1 [10058-F4],did not significantly alter,did not significantly alter,significantly reduced; also recorded: significantly inhibits
"O=S(=O)(O)c1ccc2cc(N=Nc3cc(S(=O)(=O)O)c4cccnc4c3O)ccc2c1 [NSC87877, 8-Hydroxy-7-[(6-sulfo-2-naphthyl)azo]-5-quinolinesulfonic acid]",significantly abrogated; also recorded: significantly inhibited,significantly abrogated; also recorded: significantly inhibited,
"NC(=O)c1ccc(-c2nc(-c3ccc4c(c3)OCO4)c(-c3ccccn3)[nH]2)cc1 [SB431542, 4-[4-(1,3-benzodioxol-5-yl)-5-(2-pyridinyl)-1H-imidazol-2-yl]benzamide]",effectively abrogate; also recorded: significantly inhibited,effectively abrogate; also recorded: significantly inhibited,
